From article PMC6751662, “Pharmacological and functional similarities of the human neuropeptide Y system in C. elegans challenges phylogenetic views on the FLP/NPR system” (Cell Communication and Signaling : CCS, 2019)

Tests used:
NPR-5b = target: T1, NPR-5b (Caenorhabditis elegans, UniProt Q6F3C9); assay: IP accumulation assay (Table S8), NPR-5b; assay type: cell-based, C. elegans; conditions: 1 h, HBSS + 20 mM LiCl, transfected HEK293, Table S8 (title: chimeric GαΔ6qi4myr), HTRF IP-One, mean of >=3 independent experiments
T1 sequence (Q6F3C9 1-433): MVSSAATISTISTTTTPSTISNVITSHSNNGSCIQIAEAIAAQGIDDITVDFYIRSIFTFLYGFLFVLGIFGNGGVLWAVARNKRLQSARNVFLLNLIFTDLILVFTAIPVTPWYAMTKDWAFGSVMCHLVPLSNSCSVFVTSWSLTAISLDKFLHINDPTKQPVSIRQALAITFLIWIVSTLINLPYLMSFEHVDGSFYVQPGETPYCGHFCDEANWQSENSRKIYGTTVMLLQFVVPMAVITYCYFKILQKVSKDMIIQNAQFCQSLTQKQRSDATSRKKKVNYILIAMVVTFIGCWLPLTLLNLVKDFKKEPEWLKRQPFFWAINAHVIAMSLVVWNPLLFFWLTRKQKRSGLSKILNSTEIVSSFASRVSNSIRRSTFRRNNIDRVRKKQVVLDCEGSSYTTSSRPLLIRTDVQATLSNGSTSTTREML
Protocol: (§1) For measuring IP accumulation, HEK293 cells grown to 70–80% confluency in 6-well plates were transiently co-transfected using Metafectene Pro (2.5 μl/μg DNA; Biontex) with plasmids containing receptor and/or mock (empty pcDNA3.1) (for endogenous Gq-coupling) using 4 μg total DNA in a ratio of 3:1 following the manufacturer’s instructions. For testing Gα16- and GαΔ6qi4myr-coupling, plasmids encoding the corresponding Gα protein were co-transfected instead of mock. Gα16 is naturally promiscuous and stimulates the phospholipase C (PLC) pathway leading to IP production, while the exchange of the C-terminal four amino acids of Gαq for the corresponding residues of Gαi1 in the chimeric GαΔ6qi4myr confers the ability to couple to Gi/o protein-preferring receptors but still stimulate PLC, thus specifically redirecting downstream cellular signaling. 16 h post transfection, the cells were seeded into white 384-well plates at a density of 20,000 cells/well. Media was removed 24 h later and the cells were incubated with the indicated concentration of peptides for 1 h in HBSS + 20 mM LiCl. IP accumulation was measured with the HTRF-based IP-One Gq kit (Cisbio) on a microplate reader (Tecan Spark).
(§2) For in vitro activation, data is presented as mean ± SEM of at least three independent experiments conducted in technical triplicate. […] For the C. elegans NPRs, we considered the strongest response elicited by any of the peptides downstream of a particular receptor as the receptor’s maximal signal. This may or may not be the biological maximum that can be reached by the ‘true’ endogenous agonist. For the human receptors, the response to the established endogenous agonist reflected the maximal signal.

NPR-11 = target: T2, NPR-11 (Caenorhabditis elegans, UniProt Q18179); assay: IP accumulation assay, chimeric GαΔ6qi4myr, NPR-11; assay type: cell-based, C. elegans; conditions: 1 h, HBSS + 20 mM LiCl, HEK293 receptor + GαΔ6qi4myr, HTRF IP-One
T2 construct: expressed in transfected cells; host or cells: HEK293, transient
T2 sequence (Q18179 1-402): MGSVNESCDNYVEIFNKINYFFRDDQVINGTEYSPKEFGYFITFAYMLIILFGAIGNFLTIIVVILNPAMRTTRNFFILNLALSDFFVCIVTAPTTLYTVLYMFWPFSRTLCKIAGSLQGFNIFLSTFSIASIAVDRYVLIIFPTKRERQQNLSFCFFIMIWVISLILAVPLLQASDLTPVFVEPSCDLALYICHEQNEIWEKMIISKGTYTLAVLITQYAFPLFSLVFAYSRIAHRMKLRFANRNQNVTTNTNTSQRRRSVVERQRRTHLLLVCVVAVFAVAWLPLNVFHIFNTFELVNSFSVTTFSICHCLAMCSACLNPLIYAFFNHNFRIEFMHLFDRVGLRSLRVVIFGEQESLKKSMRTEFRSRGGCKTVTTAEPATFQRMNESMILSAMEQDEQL
Protocol: as §1, §2

Y2R = target: T3, Y2R (Homo sapiens, UniProt P49146); assay: cAMP reporter gene assay, Gi/o, Y2R; assay type: cell-based; conditions: for cAMP assay (Gi/o), Y2R: 4 h, lower = higher Gi/o activity, transfected HEK293, CRE-luciferase, mean of >=3 independent experiments; for Gi (Gs) [x-fold of forskolin], Y2R, mean: inhibition of cAMP production induced by 1 µM forskolin (set to 1.00), transiently transfected HEK293 cells, mean of at least three independent experiments
T3 construct: expressed in transfected cells; host or cells: HEK293, transient
T3 sequence (P49146 1-381): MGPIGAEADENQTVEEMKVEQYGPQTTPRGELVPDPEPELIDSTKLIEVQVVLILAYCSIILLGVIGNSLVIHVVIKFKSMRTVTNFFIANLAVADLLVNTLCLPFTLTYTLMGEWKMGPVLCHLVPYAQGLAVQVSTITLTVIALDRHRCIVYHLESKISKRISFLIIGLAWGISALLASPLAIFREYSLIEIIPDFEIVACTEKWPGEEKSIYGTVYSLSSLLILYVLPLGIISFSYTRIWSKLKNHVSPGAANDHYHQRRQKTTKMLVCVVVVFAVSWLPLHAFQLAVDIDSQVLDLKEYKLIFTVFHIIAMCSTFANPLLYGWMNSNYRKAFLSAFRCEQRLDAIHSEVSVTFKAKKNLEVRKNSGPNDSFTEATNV
Protocol: (§3) Activation of Gs and Gi/o was assessed with a cAMP reporter gene assay. HEK293 cells grown to 70–80% confluency in 6-well plates were transiently co-transfected with vectors encoding the receptor and the cAMP reporter gene plasmid pGL4.29 [luc2P/CRE/Hygro] (Promega; 4 μg total, 1:1 ratio) using Metafectene Pro (3 μl/μg DNA; Biontex) following the manufacturer’s instructions. 16 h post transfection, the cells were seeded into white 384-well plates at a density of 20,000 cells/well. On the next day, the medium was removed and the cells were stimulated with 20 μl of peptide solution (or forskolin as positive control) in serum-free DMEM for 4 h. For measuring Gi/o activity, the peptide solutions additionally contained 1 μM forskolin to elevate cellular cAMP levels. After incubation, the luciferase substrate OneGlo in lysis buffer (Promega) was added and the luminescence was measured in a microplate reader Tecan Spark (Tecan). Data were analyzed with GraphPad Prism 5.03 and are shown as fold of basal or fold of forskolin in case of Gαi/o activity.
as §2

NPFF2R = target: T4, NPFF2R (Homo sapiens, UniProt Q9Y5X5); assay: cAMP reporter gene assay, Gi/o, NPFF2R; assay type: cell-based; conditions: for cAMP assay (Gi/o), NPFF2R: 4 h, lower = higher Gi/o activity, transfected HEK293, CRE-luciferase, mean of >=3 independent experiments; for Gi (Gs) [x-fold of forskolin], NPFF2R, mean: inhibition of cAMP production induced by 1 µM forskolin (set to 1.00), transiently transfected HEK293 cells, mean of at least three independent experiments
T4 construct: expressed in transfected cells; host or cells: HEK293, transient
T4 sequence (Q9Y5X5 103-522): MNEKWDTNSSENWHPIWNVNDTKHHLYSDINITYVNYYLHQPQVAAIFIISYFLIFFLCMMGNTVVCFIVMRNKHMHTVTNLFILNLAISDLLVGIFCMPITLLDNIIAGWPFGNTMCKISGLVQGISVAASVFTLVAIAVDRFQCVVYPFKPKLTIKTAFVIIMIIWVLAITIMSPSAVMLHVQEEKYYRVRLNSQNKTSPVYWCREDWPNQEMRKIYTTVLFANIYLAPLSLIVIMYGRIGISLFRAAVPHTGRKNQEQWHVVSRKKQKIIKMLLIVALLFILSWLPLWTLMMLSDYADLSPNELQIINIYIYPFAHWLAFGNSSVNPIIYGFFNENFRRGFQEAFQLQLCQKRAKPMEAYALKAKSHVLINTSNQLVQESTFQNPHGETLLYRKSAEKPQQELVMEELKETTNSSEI
Protocol: as §3, §2

[1] = 0.1 µM peptide (Table S8), mean of >=3 independent experiments
[2] = 10 µM peptide, mean of >=3 independent experiments (Tables S5 and S8)
[3] = 0.1 µM peptide + 1 µM forskolin (set to 1.00)
[4] = 10 µM peptide + 1 µM forskolin (set to 1.00)

Question: What does the source list for “AGSDPNFLRF-NH2 [FLP-1-2, C. elegans FMRFamide-like peptide, C-terminally amidated, synthesized by SPPS]”?
Answer: IP accumulation, NPR-5b (NPR-5b; 0.1 µM peptide): 0.99 x-fold of basal; IP accumulation, NPR-5b (NPR-5b; 10 µM peptide): 1.80 x-fold of basal; IP accumulation with GαΔ6qi4myr, NPR-11 (NPR-11; [1]): 0.92 x-fold of basal; IP accumulation with GαΔ6qi4myr, NPR-11 (NPR-11; [2]): 6.48 x-fold of basal

Question: Which results are given for “APKPKFIRF-NH2 [FLP-5-1, C. elegans FMRFamide-like peptide, C-terminally amidated, synthesized by SPPS]”?
Answer: IP accumulation, NPR-5b (NPR-5b; 0.1 µM peptide): 0.91 x-fold of basal; IP accumulation, NPR-5b (NPR-5b; 10 µM peptide): 1.45 x-fold of basal; IP assay endog. Gαq + GαΔ6qi4myr, NPR-11 (NPR-11; 0.1 nM peptide (Table S5), mean of >=3 independent experiments): 1.03 x-fold of basal; IP accumulation with GαΔ6qi4myr, NPR-11 (NPR-11; [1]): 1.03 x-fold of basal; IP accumulation with GαΔ6qi4myr, NPR-11 (NPR-11; [2]): 6.49 x-fold of basal

Question: Which results are given for “APLEGFEDMSGFLRTIDGIQKPRF-NH2 [FLP-33, NPY-like C. elegans FLP with C-terminal RxRF/Ya signature]”?
Answer: cAMP assay (Gi/o), Y2R (Y2R; [3]): 0.89 x-fold of forskolin; cAMP assay (Gi/o), Y2R (Y2R; [4]): 0.76 x-fold of forskolin; cAMP assay (Gi/o), NPFF2R (NPFF2R; [3]): 0.82 x-fold of forskolin; cAMP assay (Gi/o), NPFF2R (NPFF2R; [4]): 0.16 x-fold of forskolin

Question: Which “IP accumulation, NPR-5b” value (NPR-5b; 0.1 µM peptide) does the source give for “ASPSFIRF-NH2 [FLP-4-2, C. elegans FMRFamide-like peptide, C-terminally amidated, synthesized by SPPS]” here?
Answer: Its value is 0.90 x-fold of basal.

Question: What about the “IP accumulation, NPR-5b” value (NPR-5b; 10 µM peptide) of the same substance?
Answer: Its value is 1.98 x-fold of basal.

Question: What about the “IP accumulation with GαΔ6qi4myr, NPR-11” value (NPR-11; [1]) of the same substance?
Answer: Its value is 1.03 x-fold of basal.

Question: And the “IP accumulation with GαΔ6qi4myr, NPR-11” value (NPR-11; [2])?
Answer: Its value is 2.79 x-fold of basal.

Question: “EASAFGDIIGELKGKGLGGRMRF-NH2 [FLP-27, NPY-like C. elegans FLP with C-terminal RxRF/Ya signature]” was tested. Which “cAMP assay (Gi/o), Y2R” value (Y2R; [3]) did it give?
Answer: Its value is 0.80 x-fold of forskolin.

Question: And the “cAMP assay (Gi/o), Y2R” value (Y2R; [4])?
Answer: Its value is 0.17 x-fold of forskolin.

Question: And the “cAMP assay (Gi/o), NPFF2R” value (NPFF2R; [3])?
Answer: Its value is 0.66 x-fold of forskolin.

Question: What about the “cAMP assay (Gi/o), NPFF2R” value (NPFF2R; [4]) of the same substance?
Answer: Its value is 0.18 x-fold of forskolin.

Question: How did the “Gi (Gs) [x-fold of forskolin], Y2R, mean” value (Y2R; 0.1 µM peptide) turn out when “GLGPRPLAF-NH2 [[R8A]FLP-21, R8A control peptide of FLP-21, penultimate arginine exchanged for an alanine]” was run?
Answer: The value was 0.88 x-fold of forskolin.

Question: What about the “Gi (Gs) [x-fold of forskolin], Y2R, mean” value (Y2R; 10 µM peptide) of the same substance?
Answer: The value was 0.81 x-fold of forskolin.

Question: What about the “Gi (Gs) [x-fold of forskolin], NPFF2R, mean” value (NPFF2R; 0.1 µM peptide) of the same substance?
Answer: Its value is 0.88 x-fold of forskolin.

Question: And the “Gi (Gs) [x-fold of forskolin], NPFF2R, mean” value (NPFF2R; 10 µM peptide)?
Answer: Its value is 0.60 x-fold of forskolin.

Question: With “NPENDTPFGTMRF-NH2 [FLP-3-4, C. elegans FMRFamide-like peptide, C-terminally amidated, synthesized by SPPS]” as the substance, how does the “IP accumulation, NPR-5b” value (NPR-5b; 0.1 µM peptide) read?
Answer: The value was 1.19 x-fold of basal.

Question: What about the “IP accumulation, NPR-5b” value (NPR-5b; 10 µM peptide) of the same substance?
Answer: Its value is 8.18 x-fold of basal.

Question: And the “IP accumulation with GαΔ6qi4myr, NPR-11” value (NPR-11; [1])?
Answer: The value was 0.92 x-fold of basal.

Question: What about the “IP accumulation with GαΔ6qi4myr, NPR-11” value (NPR-11; [2]) of the same substance?
Answer: Its value is 1.17 x-fold of basal.

Question: How did the “Gi (Gs) [x-fold of forskolin], Y2R, mean” value (Y2R; 0.1 µM peptide) turn out when RGPSGPLAF-NH2 [[R8A]FLP-15-2] was run?
Answer: Its value is 0.86 x-fold of forskolin.

Question: And the “Gi (Gs) [x-fold of forskolin], Y2R, mean” value (Y2R; 10 µM peptide)?
Answer: Its value is 1.05 x-fold of forskolin.

Question: And the “Gi (Gs) [x-fold of forskolin], NPFF2R, mean” value (NPFF2R; 0.1 µM peptide)?
Answer: Its value is 0.94 x-fold of forskolin.

Question: What about the “Gi (Gs) [x-fold of forskolin], NPFF2R, mean” value (NPFF2R; 10 µM peptide) of the same substance?
Answer: Its value is 0.97 x-fold of forskolin.
